Measured values: PubChem BioAssay (NCI)
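Compound exposure: 48 hours, 5 concentrations, 96-well plates. GI50 is the concentration that inhibits growth by half. TGI: total growth inhibition.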

System: MDA-MB-468 breast
Test: NCI tumour cell line growth inhibition, 48 h

Row | SMILES | GI50 [nM] | TGI [nM]
1 | CCOC(=O)/C=C1/SC(N2CCCCC2)C(=O)N1CC (stereo not drawn) | > 100000 | > 100000
2 | O=C(N/N=C/c1c(Cl)cccc1Cl)c1cccnc1Nc1cccc(C(F)(F)F)c1 | 951 | 9270
3 | C[C@]12CCC(=O)CC1CC[C@@H]1C2CC[C@@]2(C)C1CC[C@@H]2OC(=O)CC[Se][Se]CCC(=O)O[C@H]1CCC2[C@@H]3CCC4CC(=O)CC[C@]4(C)C3CC[C@@]21C (stereo partly drawn) | 2100 | 5060
4 | ClCCn1cnc2c(SCc3ccccc3Cl)ncnc21 | 9760 | 67600
5 | C=C1C(=O)O[C@H]2[C@H]1CC/C(COC(=O)CCSSCCC(=O)OC/C1=C/CC[C@@]3(C)O[C@H]3[C@H]3OC(=O)C(=C)[C@@H]3CC1)=C\CC[C@@]1(C)O[C@@H]21 | 543 | 2280
6 | CCCN(CCC)c1ccc(CO)c(Cl)c1 | 46.9 | 199
7 | Cc1cc(Nc2ccc3c(c2)OCO3)c2cc3c(cc2n1)OCO3 | 519 | 15000
8 | CCOC(=O)c1nnn(-c2no[n+]([O-])c2-c2ccc(OC)cc2)c1COc1cccc2cccnc12 | 2610 | 7990
9 | Cc1cc(N(CCNc2ccnc3cc(Cl)ccc23)Cc2cccs2)nc(Cl)n1 | 1220 | 2700
10 | C(=C1c2ccccc2-c2ccccc21)c1ccncc1 | 2280 | 6640
11 | CC(C)C[C@H](NC(=O)Cn1ccc(Nc2ccccc2)cc1=O)B(O)O | 423 | 5880
12 | C=C1C(=O)O[C@H]2[C@H]1CC/C(COC(=O)CCCC(=O)OC/C1=C/CC[C@@]3(C)O[C@H]3[C@H]3OC(=O)C(=C)[C@@H]3CC1)=C\CC[C@@]1(C)O[C@@H]21 | 1510 | 5300
13 | Cc1ccc(NC2=N[C@]34CC(=O)CC[C@]3(C)[C@H]3CC[C@]5(C)C(=O)CC[C@H]5[C@@H]3C[C@@H]4S2)c(C)c1 | 1930 | 3930
14 | C=CC(=O)N1C[C@H](COc2nc(Nc3cnn(C)c3)nc3[nH]cc(Cl)c23)[C@@H](OC)C1 | 445 | 2590
15 | C[CH2][Pb]([CH2]C)([CH2]C)[O]C(=O)COc1ccccc1 | 230 | 659
16 | Cc1cc(Oc2ccccc2)ccc1Nc1ncnc2ccc(-c3cnc(Cl)c(NS(C)(=O)=O)c3)cc12 | 1040 | 3330
17 | COc1cc(-c2csc(NC(=O)Nc3ccc(Cl)c(C(F)(F)F)c3)n2)cc(OC)c1OC | 775 | 3850
18 | Oc1cccc(-c2nc(-c3n[nH]c(=S)n3-c3ccccc3)cc3c2[nH]c2ccccc23)c1 | 2540 | 7410
19 | O=C(Nc1cccc(Cl)c1)Nc1nccs1 | 8830 | 89500
20 | O=S(=O)(Nc1ccc(Cl)cc1)c1ccc(-c2cnc(C3CC3)o2)cc1 | 368 | 6010
21 | CCCCCCCC(=O)SCC/C=C/[C@@H]1CC(=O)NCc2cccc(n2)CN(Cc2ccc3ccccc3c2)CC(=O)N[C@@H](C(C)C)C(=O)O1 | 33300 | > 100000

Row | SMILES | GI50 [nM] | TGI [nM]
22 | O=C1N[C@@H]2[C@@H](O)[C@@H](O)[C@H](O)C[C@H]2c2cc3c(c(O)c21)OCO3 | 58 | 298
23 | N#CC1=C(N)Oc2c(ccc3ccccc23)C1c1cccs1 (stereo not drawn) | 37.5 | 13700
24 | O=C(CCCCN1CCOCC1)Nc1ccc(Cn2nnc3c2C(=O)c2nnn(Cc4ccc(NC(=O)CCCCN5CCOCC5)cc4)c2C3=O)cc1 | 103 | 261
25 | O=c1ccc2nc(C(F)(F)F)nn(-c3ccccc3)c-2c1 | 1060 | 2980
26 | N#Cc1c(Br)n(C2OC(CO)C(O)C2O)c2ncn3ccnc3c12 (stereo not drawn) | 35200 | > 100000
27 | CN(C)CCCNCc1ccc(-c2ccc(F)c(Cl)c2)o1 | 8920 | 23400
28 | Cc1nn(CCO)c(C)c1N=[N+]([O-])c1c(C)nn(CCO)c1C | 2840 | 15800
29 | O=Cc1cn(Cc2ccc(Cl)cc2)c2ccccc12 | 22 | 80.1
30 | C[n+]1c2ccccc2c(Nc2ccc(N3CCCCC3)cc2)c2[nH]c3ccccc3c21 | 153 | 401
31 | OCc1ccc(N(Cc2ccc(F)cc2)CC2CC2)cc1Cl | 18.9 | 68.6
32 | CCCC(=O)NC(c1ccc(N(CC)CC)cc1)c1cc(C)c2cccnc2c1O (stereo not drawn) | 386 | 1960
33 | C=C1C(=O)O[C@H]2[C@H]1CC/C(COC(=O)/C=C\C(=O)NCc1ccc(Cn3c(=O)sn(CCCI)c3=O)cc1)=C\CC[C@@]1(C)O[C@@H]21 | 519 | 1190
34 | Cc1ccc(Cl)cc1-c1nc(N)nc(Nc2ccc(Br)cc2)n1 | 175 | 614
35 | CN(C)CCCn1c2c(c3ccc(-c4ccn[nH]4)cc3c1=O)C(=O)c1ccccc1-2 | 7840 | 24000
36 | O=CN/N=C/c1ccc(Cl)c([N+](=O)[O-])c1 | 127 | 4260
37 | COc1ccc2c(c1)NC(=O)CN2c1nc(NC2CC2)nc2ccccc12 |  | 3750
38 | O=C(Nc1ccc(-c2nc(-c3cccc(O)c3)c(-c3ccnc(Br)c3)[nH]2)cc1)c1ccccc1 | 1910 | 4740
39 | CC1(C)CC[C@]2(C(N)=O)CC[C@]3(C)C(=CC[C@@H]4[C@@]5(C)C/C(=C/c6cccnc6)C(=O)C(C)(C)[C@@H]5CC[C@]43C)[C@@H]2C1 | 3200 | > 100000
40 | CC(=O)N1CCC(Nc2cc(C(=O)NC[C@H](O)CN3CCc4ccccc4C3)ncn2)CC1 | > 100000 | > 100000
41 | O=C(Nc1ccc([As]=[As]c2ccc(NC(=O)c3ccccc3)cc2)cc1)c1ccccc1 (stereo not drawn) | 152 | 324
42 | N#Cc1c(-c2ccc(Cl)cc2)nc(SCc2ccccc2)nc1N1CCNCC1 | 1710 | 3460
